Measured values reported in patent US8188093B2, “Pyrazinecarboxamide derivatives as HDL-cholesterol raising agents” (Hoffmann-La Roche Inc., priority 2006, dated 2012).
Values belong to the molecule of their own block, whether it stands above or below them.

Tests used:
[1] = system: lean, chow-fed male Sprague-Dawley rats; assay: Effects on plasma lipid levels (HDL cholesterol) in lean, chow fed rats; format: in vivo, rat; settings: 30 mg/kg p.o. of compound, once daily for five days, size exclusion chromatography AUC
Description: Effects of compounds of formula I on plasma lipid levels were determined in lean, chow-fed male Sprague-Dawley rats with compounds administered by p.o. gavage. After one week of acclimation, blood samples were collected from 4 hour-fasted animals for plasma lipid determination. Animals were then assigned to treatment groups based on HDL-cholesterol levels. Compounds of formula I were administered by gavage, once daily for five days. Control animals received vehicle alone. Blood was collected on day five from 4 hour-fasted rats, 2 hours after a final treatment, for plasma lipid analysis. Total cholesterol, HDL-cholesterol, and triglycerides were determined by measuring total cholesterol, HDL-cholesterol, and triglyceride using colorimetric enzymatic assays (Roche Diagnostic GmbH, Mannheim, Germany). HDL-C was also quantified using size exclusion chromatography on superpose-6 column using a SMART system (Pharmacia). Lipoprotein distribution was calculated assuming a Gaussian distribution for each peak, using a nonlinear, least-squares curve-fitting procedure to calculate the area under the curve (AUC). Compound concentration was also determined in plasma.

[2] = system: obese male Sprague Dawley rats; assay: Effects on plasma lipid levels (HDL cholesterol) in obese, high fat diet fed rats; format: in vivo, rat; settings: 28-29 days
Description: Efficacy of compounds in modulating plasma lipid levels was determined also in obese male Sprague Dawley rats after 28-29 days administration of compounds. Male Sprague-Dawley rats of 10 weeks of age were fed a high fat diet during 3 weeks. Obese rats were distributed in groups according to homogeneous BW and FI evaluated a week before the start of the treatment. Treatment was administered as food-Admix. On day 29, blood was taken in the morning under slight anesthesia (retro-orbital method) in post-prandial conditions i.e. 4 h after food was removed. Plasma was separated from blood by low speed centrifugation and selected organs were taken (e.g. liver, fat). Total cholesterol, HDL-cholesterol, and triglycerides were determined by measuring total cholesterol, HDL-cholesterol and triglyceride using colorimetric enzymatic assays (Roche Diagnostic GmbH, Mannheim, Germany). HDL-C was also quantified using size exclusion chromatography on superpose-6 column using a SMART system (Pharmacia). Lipoprotein distribution was calculated assuming a Gaussian distribution for each peak, using a nonlinear, least-squares curve-fitting procedure to calculate the area under the curve (AUC). Compound concentration was also determined in plasma.

[3] = system: hamsters; assay: Effects on plasma lipid levels (HDL cholesterol) in hamsters; format: in vivo, hamster; settings: 30 mg/kg po of compound, once daily for five days
Description: Efficacy of compounds in modulating plasma lipid levels was determined in hamsters after 5 days of daily administration of compounds. Male hamsters of 6-8 weeks of age were used in the studies. After one week of acclimation, blood samples were collected from 4 hour-fasted animals for plasma lipid determination. Animals were then assigned to treatment groups based on HDL-cholesterol levels. Compounds were administered by gavage, once daily for five days. Control animals received vehicle alone. Blood was collected on day five from 4 hour-fasted hamsters, 2 hours after a final treatment, for plasma lipid analysis. Total cholesterol, HDL-cholesterol, LDL-cholesterol, and triglycerides were determined using colorimetric enzymatic assays (Roche Diagnostic GmbH, Mannheim, Germany). HDL-cholesterol, LDL-cholesterol, and VLDL-cholesterol levels were also quantified using size exclusion chromatography on superpose-6 column using a SMART system (Pharmacia). Lipoprotein distribution was calculated assuming a Gaussian distribution for each peak, using a nonlinear, least-squares curve-fitting procedure to calculate the area under the curve. Compound concentration was also determined in plasma.

[4] = 30 mg/kg food admix of compound

melting point: 172 to 178 °C
Structure (SMILES): CCCCOc1ncc(C(=O)N[C@@H]2CCCC[C@H]2O)cc1-c1cc(C(F)(F)F)ccc1F

Structure (SMILES): O=C(N[C@@H]1CCCC[C@H]1O)c1cnc(OCC2CC2)c(-c2ccc(Cl)cc2)c1 [5-(4-chloro-phenyl)-6-cyclopropylmethoxy-N-((1R,2R)-2-hydroxy-cyclohexyl)-nicotinamide]
HDL Cholesterol levels [AUC as % compared to control] [1]: +30% | HDL Cholesterol levels [AUC as % compared to control] [2, 4]: +84%

Structure (SMILES): O=C(N[C@@H]1CCCC[C@H]1O)c1cnc(OCC(F)(F)F)c(-c2ccc(Cl)cc2)c1 [5-(4-chloro-phenyl)-N-((1R,2R)-2-hydroxy-cyclohexyl)-6-(2,2,2-trifluoroethoxy)-nicotinamide]
HDL Cholesterol levels [AUC as % compared to control] [1]: +78% | HDL Cholesterol levels [AUC as % compared to control] [3]: +69%

Structure (SMILES): COCCOc1ncc(C(=O)N[C@@H]2CCCC[C@H]2O)cc1-c1ccc(Cl)cc1 [5-(4-chloro-phenyl)-N-((1R,2R)-2-hydroxy-cyclohexyl)-6-(2-methoxy-ethoxy)-nicotinamide]
HDL Cholesterol levels [AUC as % compared to control] [2, 4]: +50%

Structure (SMILES): O=C(N[C@@H]1CCCC[C@H]1O)c1cnc(OCC2CC2)c(-c2ccc(F)cc2)c1 [6-cyclopropylmethoxy-5-(4-fluoro-phenyl)-N-((1R,2R)-2-hydroxy-cyclohexyl)-nicotinamide]
HDL Cholesterol levels [AUC as % compared to control] [1]: +35%

melting point: 154 to 155 °C
Structure (SMILES): O=C(N[C@@H]1CCCC[C@H]1O)c1cnc(Oc2ccccc2Cl)c(-c2ccc(Cl)cc2)n1 [Example 39, 5-(2-Chloro-phenoxy)-6-(4-chloro-phenyl)-pyrazine-2-carboxylic acid ((1R,2R)-2-hydroxy-cyclohexyl)-amide]

Structure (SMILES): C[C@](O)(CNC(=O)c1cnc(OCC2CC2)c(-c2ccc(F)cc2)c1)C1CC1 [N—((R)-2-cyclopropyl-2-hydroxy-propyl)-6-cyclopropylmethoxy-5-(4-fluorophenyl)-nicotinamide]
HDL Cholesterol levels [AUC as % compared to control] [1]: +73%

Structure (SMILES): Cc1c(C(=O)NN2CCCCC2)nn(-c2ccc(Cl)cc2Cl)c1-c1ccc(Cl)cc1 [Rimonabant, reference compound]
HDL Cholesterol levels [AUC as % compared to control] ([2]; 10 mg/kg food admix): +11%
